Results on eleven compounds are retold here after USH83H, “Dental antiplaque agents and inhibitors of connective tissue destruction” (American Cyanamid Company, priority 1985, dated 1986).

Structures can show the parent of a compound that is named as a salt.

One series has as its system collagenase. Conditions: literature or U.S. Pat. No. 4,297,372; cited from earlier work.
Series [1] can be described thus: In vitro binding (competition) assay with 14C reference compound on tooth powder. To be noted: 1 mg tooth powder, PBS, 60 minutes at 37° C.; relative to reference 6,6'-[ureylenebis(m-phenylenecarbonylimino)] analog; >1 = less efficient. From the text:
Using (radioactive) ^14 C-6,6'-[ureylenebis(m-phenylenecarbonylimino)]bis[4-hydroxy-2-naphthalenesulfonic acid]disodium salt, an in vitro binding (competition) assay procedure has been established which involves an insoluble substrate such as tooth powder which will bind the ^14 C-6,6'-[ureylenebis(m-phenylenecarbonylimino)]bis[4-hydroxy-2-naphthalenesulfonic acid]disodium salt. The amount of ^14 C-6,6'-[ureylenebis(m-phenylenecarbonylimino)]bis[4-hydroxy-2-naphthalenesulfonic acid]disodium salt bound is determined by washing away the unbound radioactive compound and counting CPM (counts per minute) of the insoluble tooth powder/^14 C-6,6'-[ureylenebis(m-phenylenecarbonylimino)]bis[4-hydroxy-2-naphthalenesulfonic acid]disodium salt complex. […] The inhibiting effect of the test compound on binding compared to non-radioactive 6,6'-[ureylenebis(m-phenylenecarbonylimino)]bis[4-hydroxy-2-naphthalenesulfonic acid]disodium salt was determined as follows: A one mg amount of tooth powder was incubated in one ml of phosphate buffered saline (PBS) with 10 μg of ^14 C-6,6'-[ureylenebis(m-phenylenecarbonylimino)]bis[4-hydroxy-2-naphthalenesulfonic acid]disodium salt and varying dose amounts (ranging from 0 to 2 mg) of the same cold (non-radioactive) compound. […]

For series [2], the target named is T1, human skin fibroblast collagenase (Homo sapiens, UniProt P03956).
T1 construct: endogenous in cells; host or cells: human skin fibroblasts
T1 sequence (P03956 100-469): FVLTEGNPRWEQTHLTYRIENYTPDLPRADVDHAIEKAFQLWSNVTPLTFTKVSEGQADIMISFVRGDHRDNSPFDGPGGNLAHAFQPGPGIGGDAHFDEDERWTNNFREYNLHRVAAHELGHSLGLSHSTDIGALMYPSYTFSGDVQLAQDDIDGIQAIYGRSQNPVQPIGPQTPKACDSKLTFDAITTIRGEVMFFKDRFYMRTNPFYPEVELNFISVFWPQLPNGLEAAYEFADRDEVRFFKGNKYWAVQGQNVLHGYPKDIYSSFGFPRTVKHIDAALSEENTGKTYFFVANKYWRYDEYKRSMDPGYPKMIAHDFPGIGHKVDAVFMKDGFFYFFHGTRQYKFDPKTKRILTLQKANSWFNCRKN
In words: Collagenase Assay, Test Code 006 (degradation of radiolabeled native collagen fibrils). The format is biochemical. Conditions: test conc.: 30 μg/ml; ratio of weight (μg) for 50% inhibition vs reference 6,6'-[ureylenebis(m-phenylenecarbonylimino)] analog; >1 = less active. The protocol:
(i) Collagenase Assay--Test Code 006
A collagenase assay was performed by a modification of the method of Harper, et al., Biochem., 10, 3035 (1971). In a typical assay (total volume of 0.45 ml), 100 μl of the activated enzyme was added to the ^14 C-labeled collagen fibrils (250 μl) followed by 100 μl of 50 mM cacodylate, pH 7.4, containing 5 mM calcium chloride. After incubation at 37° C. for 16 hours, the tubes were centrifuged in a Beckman microfuge for five minutes at full speed. An aliquot (200 μl) of the supernatant, representing collagenase digestion products of the fibril, was assayed for radioactivity. The effect of the test compound on collagen degradation by collagenase was examined as follows:
Varying concentrations of the test compound (in distilled water) were added to the assay tubes containing active collagenase (total volume 450 μl) and after 16 hours the amount of radioactivity in the supernatant was determined. Appropriate blanks and trypsin controls were run in parallel.
The result is expressed as an ID50 collagenase value which represents a ratio of the weight (μg) of the representative compound required for 50% inhibition of collagenase over the weight (μg) of 6,6'-[ureylenebis(m-phenylenecarbonylimino)]bis[4-hydroxy-2-naphthalenesulfonic acid]disodium salt required for 50% inhibition of collagenase.

The nature of series [3]: Binding to insoluble collagenous structures. Conditions: teeth, dentin, gingiva and the like.
The subject of the next series is corneal ulcerations. Conditions: directly applied; alkali burned rabbit; cited from earlier work.
For a further series, the system named is corneal ulceration. To be noted: human; cited from earlier work.
The conditions of series [4]: compared with cysteine; cited from earlier work.

Turning to `O[C@H](CS)[C@H](O)CS` (racemic) [dithiothreitol], the “collagenase inhibition / inhibition of collagen degradation” value (shortened to “collagenase inhibition / inhibition”) with collagenase is on record as “collagenase inhibitors”.

For `c1cnc2c(c1)ccc1cccnc12` [1,10-phenanthroline], the “collagenase inhibition / inhibition” value with collagenase was “collagenase inhibitors”.

On to `O=C(Nc1ccc(S(=O)(=O)Nc2ccc3cc(S(=O)(=O)O)cc(O)c3c2)cc1)Nc1ccc(S(=O)(=O)Nc2ccc3cc(S(=O)(=O)O)cc(O)c3c2)cc1` [6,6'-[Ureylenebis(p-phenylenesulfonylimino)]bis-[4-hydroxy-2-naphthalenesulfonic acid]disodium salt], for which the “ID50 Binding Ratio” value in series [1] was 1.55. Further, the “ID50 Collagenase Ratio” value in series [2] amounted to 1.73.

As for `O=C(Nc1cccc(C(=O)Nc2ccc3cc(S(=O)(=O)O)cc(O)c3c2)c1)Nc1cccc(C(=O)Nc2ccc3cc(S(=O)(=O)O)cc(O)c3c2)c1` [6,6'-[ureylenebis(m-phenylenecarbonylimino)]bis[4-hydroxy-2-naphthalenesulfonic acid]disodium salt], in the series on collagenase, the “collagenase inhibition / inhibition” value is on record as “inhibitor of the degradation of collagen”. The “reversibility and saturability of binding” value in series [3] is “saturable and reversible”.

As for `O=C([O-])CN(CCN(CC(=O)[O-])CC(=O)[O-])CC(=O)[O-].[Ca+2].[Ca+2]` [Calcium ethylenediaminetetraacetate], in the series on corneal ulcerations, the “frequency of corneal ulceration” value was “reduce the frequency of ulceration”.

Take `Cc1ccc(C(=O)Nc2ccc(S(=O)(=O)O)c3cc(S(=O)(=O)O)cc(S(=O)(=O)O)c23)cc1NC(=O)c1cccc(NC(=O)Nc2cccc(C(=O)Nc3cc(C(=O)Nc4ccc(S(=O)(=O)O)c5cc(S(=O)(=O)O)cc(S(=O)(=O)O)c45)ccc3C)c2)c1` [Suramin]: in the series on collagenase, the “collagenase inhibition / inhibition” value is “not inhibiting the action of collagenase”.

As for `CC(=O)N[C@@H](CS)C(=O)O` [acetylcysteine], the “treatment of acute and chronic corneal ulceration” value in the series on corneal ulceration was “effective in the treatment of acute and chronic corneal ulceration”. For the same compound, in the series with corneal ulcerations, the “frequency of corneal ulceration” value is “reduce the frequency of ulceration”. Besides, in series [4], the stability entry is reported as “greater stability”.

With `N[C@@H](CS)C(=O)O` [cysteine], the “treatment of acute and chronic corneal ulceration” value with corneal ulceration was “effective in the treatment of acute and chronic corneal ulceration”. Also, in the series with collagenase, the “collagenase inhibition / inhibition” value is reported as “collagenase inhibitors”.

Regarding `Cc1cc(-c2ccc(/N=N/c3c(S(=O)(=O)O)cc4cc(S(=O)(=O)O)cc(N)c4c3O)c(C)c2)ccc1/N=N/c1c(S(=O)(=O)O)cc2cc(S(=O)(=O)O)cc(N)c2c1O` [trypan blue], the “collagenase inhibition / inhibition” value in the series with collagenase is reported as “inhibiting the activity of collagenase”.

Turning to sodium auriothiomalate, in the series on collagenase, the “collagenase inhibition / inhibition” value is “collagenase inhibitors”.

On to “α2 -macroglobulin: serum component; naturally occurring collagenase inhibitor”, for which the “collagenase inhibition / inhibition” value in the series with collagenase is recorded as “collagenase inhibitors”.
